Values after ≈ are worked out from the molar mass of the structure shown. Where two headings read alike, the source gives them in different places.
Assays:
Assay type in all cases: cell-based
Halomonas pacifica = assay: Growth reduction / MIC test against Halomonas pacifica; settings: for MIC: Bisbaumannia pacifica; for Percent reduction in growth of Halomonas pacifica: Table 6
Method: (§1) The antimicrobial properties of the Formulations were determined by measuring the minimum inhibitory concentration (MIC) or by using an adaptation of the MIC test. […] Additional details of the MIC method can be found at Andrews, J. M., Journal of Antimicrobial Chemotherapy (2001) 48, 5-16, incorporated herein by reference in its entirety.
(§2) In accordance with the MIC test, working solutions for each Formulation were prepared by dissolving 100 mg of each Formulation in 10 mL of methanol (Sigma-Aldrich) to generate a 10 mg/mL solution. Next, 10 ml of Guillard's F/2 medium was spiked with 200 μL of the 10 mg/mL Formulation solution to achieve a final concentration of 0.2 mg/mL.
0.2 mL of each H. pacifica concentration was added in triplicate to a 96-well plate. Additionally, 0.2 mL of Guillard's F/2 medium without any H. pacifica or Formulation and 0.2 mL of Guillard's F/2 medium with H. pacifica, but no Formulations, served as negative and positive growth controls, respectively. The 96-well plates were placed in an illuminated growth cabinet with a 16:8 light:dark cycle (photon flux density 33 μmol m^−2 s^−1) for 48 hrs at 18° C. and measured for chlorophyll fluorescence using a multi-well plate spectrophotometer (excitation: 360 nm; emission: 670 nm). The efficacy of each Formulation was measured by determining the percent reduction in diatom growth as a function of Formulation concentration.
(§3) The antimicrobial activity of Formulations 10-12, also derived from ETCS and PEI, was determined toward a suite of marine microorganisms, namely, Pseudoalteromonas atlantica, Cellulophaga lytica, Cobetia marina, and Halomonas pacifica. The antimicrobial activity of Formulations 10-12 was determined toward these marine microorganisms according to the methods of EXAMPLES 5-7. The MIC for each Formulation against each strain is compared to that of the PEI, ETCS, and TCS (alone) in Table 7.

[1] = tested on: Pseudoalteromonas atlantica; assay: MIC test against Pseudoalteromonas atlantica
Method: as §1, §3

Cellulophaga lytica = assay: Growth reduction / MIC test against Cellulophaga lytica; settings: for MIC: Cellulophaga lytica; for Percent reduction in growth of Cellulophaga lytica: Table 5
Method: as §1, §2
0.2 mL of each concentration of each Formulation (spiked with C. lytica) was added in triplicate to a 96-well plate. Additionally, 0.2 mL of Guillard's F/2 medium without any C. lytica or Formulation and 0.2 mL of Guillard's F/2 medium with C. lytica, but no Formulations, served as negative and positive growth controls, respectively. The 96-well plates were placed in an illuminated growth cabinet with a 16:8 light:dark cycle (photon flux density 33 μmol m^−2 s^−1) for 48 hrs at 18° C. and measured for chlorophyll fluorescence using a multi-well plate spectrophotometer (excitation: 360 nm; emission: 670 nm). The efficacy of each Formulation was measured by determining the percent reduction in diatom growth as a function of Formulation concentration.
as §3

Navicula incerta = assay: Growth reduction / MIC test against Navicula incerta in Guillard's F/2 medium, chlorophyll fluorescence; settings: Table 12; read-out: N. incerta MIC
[2] = Formulation Concentration 0.78125 μg/mL
[3] = Formulation Concentration 1.5625 μg/mL
[4] = Formulation Concentration 3.125 μg/mL
[5] = Formulation Concentration 6.25 μg/mL
[6] = Formulation Concentration 12.5 μg/mL
[7] = Formulation Concentration 25 μg/mL
[8] = Formulation Concentration 50 μg/mL
[9] = Formulation Concentration 100 μg/mL

SMILES | Percent reduction in growth of Halomonas pacifica (Halomonas pacifica; [2]) | Percent reduction in growth of Halomonas pacifica (Halomonas pacifica; [3]) | Percent reduction in growth of Halomonas pacifica (Halomonas pacifica; [4]) | Percent reduction in growth of Halomonas pacifica (Halomonas pacifica; [5]) | Percent reduction in growth of Halomonas pacifica (Halomonas pacifica; [6]) | Percent reduction in growth of Halomonas pacifica (Halomonas pacifica; [7]) | Percent reduction in growth of Halomonas pacifica (Halomonas pacifica; [8]) | Percent reduction in growth of Halomonas pacifica (Halomonas pacifica; [9]) | Percent reduction in growth of Cellulophaga lytica (Cellulophaga lytica; [2]) | Percent reduction in growth of Cellulophaga lytica (Cellulophaga lytica; [3]) | Percent reduction in growth of Cellulophaga lytica (Cellulophaga lytica; [4]) | Percent reduction in growth of Cellulophaga lytica (Cellulophaga lytica; [5]) | Percent reduction in growth of Cellulophaga lytica (Cellulophaga lytica; [6]) | Percent reduction in growth of Cellulophaga lytica (Cellulophaga lytica; [7]) | Percent reduction in growth of Cellulophaga lytica (Cellulophaga lytica; [8]) | Percent reduction in growth of Cellulophaga lytica (Cellulophaga lytica; [9]) | further results
Oc1cc(Cl)ccc1Oc1ccc(Cl)cc1Cl [TCS, triclosan] | 0.00% | 0.00% | 0.00% | 9.94% | 17.32% | 37.65% | 93.07% | 92.77% | 12.29% | 32.40% | 59.78% | 86.87% | 86.87% | 87.15% | 87.15% | 86.59% | MIC (Halomonas pacifica; read-out: H. pacifica MIC, Table 7): 50 to 100 µg/mL (≈ 173 to 345 µM); MIC (Halomonas pacifica; read-out: H. pacifica MIC, Table 12): 100 µg/mL (≈ 345 µM); MIC ([1]; read-out: P. atlantica MIC): 50 µg/mL (≈ 173 µM); MIC (Cellulophaga lytica; read-out: C. lytica MIC, Table 7): 6.25 to 12.5 µg/mL (≈ 21.6 to 43.2 µM); MIC (Cellulophaga lytica; read-out: C. lytica MIC, Table 12): 12.5 µg/mL (≈ 43.2 µM)
Clc1ccc(Oc2ccc(Cl)cc2OCC2CO2)c(Cl)c1 (stereo not shown) [ETCS, 2-((5-chloro-2-(2,4-dichlorophenoxy)phenoxy)methyl)oxirane] | 0.00% | 11.15% | 11.78% | 12.90% | 16.72% | 16.08% | 7.01% | 0.00% | 0.00% | 5.92% | 10.06% | 11.24% | 33.73% | 57.40% | 69.23% | 14.20% | MIC (Navicula incerta): > 100 µg/mL; MIC (Halomonas pacifica; Table 7, read-out: H. pacifica MIC): > 100 µg/mL; H. pacifica MIC (Halomonas pacifica; Table 12): >100 µg/mL; MIC ([1]; Table 7, read-out: P. atlantica MIC): > 100 µg/mL; MIC (Cellulophaga lytica; Table 7, read-out: C. lytica MIC): > 100 µg/mL; C. lytica MIC (Cellulophaga lytica; Table 12): >100 µg/mL

— patent US20110171279A1, “POLYETHYLENIMINE BIOCIDES” (NDSU RESEARCH FOUNDATION, priority 2009, published 2011)
